In PubChem BioAssay (NCI):
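All cell lines were grown in 96-well plates and treated with compound for 48 hours. GI50 = concentration required for 50% inhibition of growth. TGI denotes the concentration required for complete inhibition of growth.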

Tests used:
Assay in all cases: DTP human tumour cell line panel, 48 h; in the data active = GI50 below about 0.43 µM; inactive = the rest
SNB-75 CNS = test system: SNB-75 CNS
MDA-MB-231 breast = test system: MDA-MB-231 breast
M14 melanoma = test system: M14 melanoma
OVCAR-4 ovarian = test system: OVCAR-4 ovarian
SK-OV-3 ovarian = test system: SK-OV-3 ovarian
MCF7 breast = test system: MCF7 breast
HOP-62 NSCLC = test system: HOP-62 NSCLC
NCI-H226 lung = test system: NCI-H226 lung
A498 renal = test system: A498 renal
KM12 colon = test system: KM12 colon
NCI-H460 lung = test system: NCI-H460 lung
PC-3 prostate = test system: PC-3 prostate
OVCAR-3 ovarian = test system: OVCAR-3 ovarian
SK-MEL-2 melanoma = test system: SK-MEL-2 melanoma
K-562 leukemia = test system: K-562 leukemia
786-0 renal = test system: 786-0 renal
T-47D breast = test system: T-47D breast
UO-31 renal = test system: UO-31 renal
NCI/ADR-RES ovarian = test system: NCI/ADR-RES ovarian
HT29 colon = test system: HT29 colon
SN12C renal = test system: SN12C renal
RPMI-8226 leukemia = test system: RPMI-8226 leukemia
MOLT-4 leukemia = test system: MOLT-4 leukemia
SNB-19 CNS = test system: SNB-19 CNS
U251 CNS = test system: U251 CNS
SK-MEL-5 melanoma = test system: SK-MEL-5 melanoma
SW-620 colon = test system: SW-620 colon
LOX IMVI melanoma = test system: LOX IMVI melanoma
IGROV1 ovarian = test system: IGROV1 ovarian
OVCAR-5 ovarian = test system: OVCAR-5 ovarian
EKVX NSCLC = test system: EKVX NSCLC
UACC-62 melanoma = test system: UACC-62 melanoma
NCI-H522 lung = test system: NCI-H522 lung
SF-268 CNS = test system: SF-268 CNS
CCRF-CEM leukemia = test system: CCRF-CEM leukemia
OVCAR-8 ovarian = test system: OVCAR-8 ovarian
HCT-116 colon = test system: HCT-116 colon
RXF 393 renal = test system: RXF 393 renal
HCC-2998 colon = test system: HCC-2998 colon
HS 578T breast = test system: HS 578T breast
SK-MEL-28 melanoma = test system: SK-MEL-28 melanoma
NCI-H23 lung = test system: NCI-H23 lung
COLO 205 colon = test system: COLO 205 colon
MDA-MB-435 = test system: MDA-MB-435
CAKI-1 renal = test system: CAKI-1 renal
TK-10 renal = test system: TK-10 renal
DU-145 prostate = test system: DU-145 prostate
SF-295 CNS = test system: SF-295 CNS
SF-539 CNS = test system: SF-539 CNS
UACC-257 melanoma = test system: UACC-257 melanoma
A549 NSCLC = test system: A549 NSCLC
BT-549 breast = test system: BT-549 breast
HOP-92 NSCLC = test system: HOP-92 NSCLC
MALME-3M melanoma = test system: MALME-3M melanoma
ACHN renal = test system: ACHN renal
HCT-15 colon = test system: HCT-15 colon

O=C1c2ccccc2S(=O)(=O)N1CSC(=S)N1CCCC1
inactive: GI50 (SNB-75 CNS) > 48 µM | GI50 (MDA-MB-231 breast) > 100 µM | GI50 (M14 melanoma) > 100 µM | GI50 (OVCAR-4 ovarian) > 51.7 µM | GI50 (SK-OV-3 ovarian) > 100 µM | GI50 (MCF7 breast) > 22.9 µM | GI50 (HOP-62 NSCLC) > 100 µM | GI50 (NCI-H226 lung) > 100 µM | GI50 (A498 renal) > 100 µM | GI50 (KM12 colon) > 100 µM | GI50 (NCI-H460 lung) 45.4 µM | GI50 (PC-3 prostate) 7.62 µM | GI50 (OVCAR-3 ovarian) > 25.6 µM | GI50 (SK-MEL-2 melanoma) > 100 µM | GI50 (K-562 leukemia) 4.02 µM | GI50 (786-0 renal) > 100 µM | GI50 (T-47D breast) > 72.4 µM | GI50 (UO-31 renal) > 100 µM | GI50 (NCI/ADR-RES ovarian) > 100 µM | GI50 (HT29 colon) > 100 µM | GI50 (SN12C renal) > 100 µM | GI50 (MOLT-4 leukemia) 8.3 µM | GI50 (SNB-19 CNS) > 100 µM | GI50 (U251 CNS) > 100 µM | GI50 (SK-MEL-5 melanoma) > 27.6 µM | GI50 (SW-620 colon) > 100 µM | GI50 (LOX IMVI melanoma) > 100 µM | GI50 (IGROV1 ovarian) 19 µM | GI50 (OVCAR-5 ovarian) > 100 µM | GI50 (EKVX NSCLC) > 100 µM | GI50 (UACC-62 melanoma) > 75.7 µM | GI50 (NCI-H522 lung) 12.1 µM | GI50 (SF-268 CNS) > 100 µM | GI50 (CCRF-CEM leukemia) 5.78 µM | GI50 (OVCAR-8 ovarian) > 100 µM | GI50 (HCT-116 colon) 63.8 µM | GI50 (RXF 393 renal) > 100 µM | GI50 (HCC-2998 colon) > 53.4 µM | GI50 (HS 578T breast) > 100 µM | GI50 (SK-MEL-28 melanoma) > 100 µM | GI50 (NCI-H23 lung) > 78.6 µM | GI50 (COLO 205 colon) > 100 µM | GI50 (MDA-MB-435) 99.7 µM | GI50 (CAKI-1 renal) > 100 µM | GI50 (TK-10 renal) > 100 µM | GI50 (DU-145 prostate) > 100 µM | GI50 (SF-295 CNS) > 100 µM | GI50 (SF-539 CNS) > 100 µM | GI50 (UACC-257 melanoma) > 100 µM | GI50 (A549 NSCLC) > 88.5 µM | GI50 (BT-549 breast) > 100 µM | GI50 (HOP-92 NSCLC) > 100 µM | GI50 (MALME-3M melanoma) > 100 µM | GI50 (ACHN renal) > 100 µM | GI50 (HCT-15 colon) > 100 µM
> 100 µM: TGI (SNB-75 CNS) | TGI (MDA-MB-231 breast) | TGI (M14 melanoma) | TGI (OVCAR-4 ovarian) | TGI (SK-OV-3 ovarian) | TGI (MCF7 breast) | TGI (HOP-62 NSCLC) | TGI (NCI-H226 lung) | TGI (A498 renal) | TGI (KM12 colon) | TGI (NCI-H460 lung) | TGI (PC-3 prostate) | TGI (OVCAR-3 ovarian) | TGI (SK-MEL-2 melanoma) | TGI (K-562 leukemia) | TGI (786-0 renal) | TGI (T-47D breast) | TGI (UO-31 renal) | TGI (NCI/ADR-RES ovarian) | TGI (HT29 colon) | TGI (SN12C renal) | TGI (MOLT-4 leukemia) | TGI (SNB-19 CNS) | TGI (U251 CNS) | TGI (SK-MEL-5 melanoma) | TGI (SW-620 colon) | TGI (LOX IMVI melanoma) | TGI (IGROV1 ovarian) | TGI (OVCAR-5 ovarian) | TGI (EKVX NSCLC) | TGI (UACC-62 melanoma) | TGI (NCI-H522 lung) | TGI (SF-268 CNS) | TGI (CCRF-CEM leukemia) | TGI (OVCAR-8 ovarian) | TGI (HCT-116 colon) | TGI (RXF 393 renal) | TGI (HCC-2998 colon) | TGI (HS 578T breast) | TGI (SK-MEL-28 melanoma) | TGI (NCI-H23 lung) | TGI (COLO 205 colon) | TGI (MDA-MB-435) | TGI (CAKI-1 renal) | TGI (TK-10 renal) | TGI (DU-145 prostate) | TGI (SF-295 CNS) | TGI (SF-539 CNS) | TGI (UACC-257 melanoma) | TGI (A549 NSCLC) | TGI (BT-549 breast) | TGI (HOP-92 NSCLC) | TGI (MALME-3M melanoma) | TGI (ACHN renal) | TGI (HCT-15 colon)
> 36 µM: TGI (RPMI-8226 leukemia)
